Tests used:
[1] = molecular target: T1, 5HT1a receptor (Homo sapiens, UniProt P08908); experiment: Buspirone challenge, prolactin release; assay type: in vivo; details: buspirone 30 mg orally; for Prolactin AUC (mean±SD): blood 0-180 min
T1 construct: Buspirone (30 mg) or matching placebo was administered orally at 0900 h (Time 0); from tissue; host or cells: living human subjects (central receptors)
T1 sequence (P08908 1-422): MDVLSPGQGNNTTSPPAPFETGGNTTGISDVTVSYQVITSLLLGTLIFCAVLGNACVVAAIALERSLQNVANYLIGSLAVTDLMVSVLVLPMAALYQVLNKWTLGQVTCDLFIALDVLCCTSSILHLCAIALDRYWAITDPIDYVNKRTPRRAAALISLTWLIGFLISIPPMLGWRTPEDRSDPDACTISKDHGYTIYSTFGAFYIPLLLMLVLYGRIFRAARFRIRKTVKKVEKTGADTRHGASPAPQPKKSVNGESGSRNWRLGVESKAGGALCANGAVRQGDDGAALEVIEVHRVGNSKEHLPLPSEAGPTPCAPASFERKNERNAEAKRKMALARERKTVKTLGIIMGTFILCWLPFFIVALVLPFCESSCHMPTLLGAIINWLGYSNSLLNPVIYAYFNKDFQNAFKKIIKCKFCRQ
Protocol: A total of 12 subjects (9 female/3 male) and 12 healthy comparison subjects (9 female/3 male) gave fully informed consent to take part in the study. […] All patients fulfilled criteria for both fibromyalgia (ACR criteria) and chronic fatigue syndrome (CDC criteria). […] Buspirone (30 mg) or matching placebo was administered orally at 0900 h (Time 0). Blood was taken at 0, 30, 60, 90, 120 and 180 min.

[2] = tested on: patients with fibromyalgia; experiment: Open label treatment study in fibromyalgia / chronic fatigue syndrome; assay type: in vivo, human; details: 2.5 mg three times daily
Protocol: Five patients with fibromyalgia (ACR criteria) who also met criteria for chronic fatigue syndrome (CDC criteria) gave informed consent to take part in this open label treatment study. All were treated with pindolol 2.5 mg three times daily.

SMILES	Prolactin levels after challenge ([1]; all subjects (patients and healthy))	Prolactin AUC (mean±SD) ([1]; healthy subjects)	Prolactin AUC (mean±SD) ([1]; patients with fibromyalgia and chronic fatigue syndrome)	Time to significant improvement in symptoms ([2]; from commencing treatment) [days]	Effect on symptoms, energy levels and general wellbeing ([2]; open label)	Patients showing a significant improvement in symptoms ([2]; open label, five patients with fibromyalgia and chronic fatigue syndrome)
O=C1CC2(CCCC2)CC(=O)N1CCCCN1CCN(c2ncccn2)CC1 [Buspirone]	rose in all subjects	27±35	49±28			
CC(C)NCC(O)COc1cccc2[nH]ccc12 (racemic) [pindolol]				≤ 10	reduction in all symptoms and an increase in energy levels and general wellbeing	Four of 5
